Species: Rattus norvegicus
Test: Open TG-GATES - Regimen: Daily Repeat
Type: toxicity, organism-based, Sprague-Dawley
Set-up: regimen Daily Repeat, gender Male, age 6 weeks
Conditions: in vivo, iv, 1 mg/kg, route intravenous injection, dose level High; for APTT / Bas / Eos / Fbg / Hb / Ht / Lym / MCH / MCHC / MCV / Mono / Neu / PT / Plat / RBC / Ret / WBC: tissue Blood; for KIDNEY_L / KIDNEY_R / KIDNEY_TOTAL: tissue Kidney; for LIVER: tissue Liver; for A/G / ALP / ALT / AST / BUN / CRE / Ca / Cl / DBIL / GLC / IP / K / LDH / Na / PL / RALB / TBIL / TC / TG / TP / gamma-GTP: tissue Plasma

C[C@@H]1[C@H](O)[C@@H](C)/C=C/C=C/C=C/C=C/C=C/C=C/C=C/[C@H](O[C@@H]2O[C@H](C)[C@@H](O)[C@H](N)[C@@H]2O)C[C@@H]2O[C@](O)(C[C@@H](O)C[C@@H](O)[C@H](O)CC[C@@H](O)C[C@@H](O)CC(=O)O[C@H]1C)C[C@H](O)[C@H]2C(=O)O [AMPHOTERICIN B]
TERMINAL_BW (72 h, time 3 day): 235.4 g
APTT (72 h, time 3 day): 15.8 s
Bas (72 h, time 3 day): 0%
Eos (72 h, time 3 day): 0.8%
Fbg (72 h, time 3 day): 303.4 mg/dL
Hb (72 h, time 3 day): 13.7 g/dL
Ht (72 h, time 3 day): 39.2%
Lym (72 h, time 3 day): 80.8%
MCH (72 h, time 3 day): 21.3 pg
MCHC (72 h, time 3 day): 34.8%
MCV (72 h, time 3 day): 61.1 fL
Mono (72 h, time 3 day): 2.2%
Neu (72 h, time 3 day): 15.2%
PT (72 h, time 3 day): 12.3 s
Plat (72 h, time 3 day): 136.2 x10_4/uL
RBC (72 h, time 3 day): 643 x10_4/ul
Ret (72 h, time 3 day): 4.2%
WBC (72 h, time 3 day): 106.4 x10_2/uL
KIDNEY_L (72 h, time 3 day): 1 g
KIDNEY_R (72 h, time 3 day): 1 g
KIDNEY_TOTAL (72 h, time 3 day): 2 g
LIVER (72 h, time 3 day): 10.7 g
A/G (72 h, time 3 day): 0.8
ALP (72 h, time 3 day): 1621.8 IU/L
ALT (72 h, time 3 day): 32 IU/L
AST (72 h, time 3 day): 61.2 IU/L
BUN (72 h, time 3 day): 22.6 mg/dL
CRE (72 h, time 3 day): 0.2 mg/dL
Ca (72 h, time 3 day): 10.9 mg/dL
Cl (72 h, time 3 day): 106.4 meq/L
DBIL (72 h, time 3 day): 0.018 mg/dL
GLC (72 h, time 3 day): 174.6 mg/dL
IP (72 h, time 3 day): 7.1 mg/dL
K (72 h, time 3 day): 4.1 meq/L
LDH (72 h, time 3 day): 51.8 IU/L
Na (72 h, time 3 day): 143 meq/L
PL (72 h, time 3 day): 147 mg/dL
RALB (72 h, time 3 day): 2.6 g/dL
TBIL (72 h, time 3 day): 0.05 mg/dL
TC (72 h, time 3 day): 85 mg/dL
TG (72 h, time 3 day): 94.8 mg/dL
TP (72 h, time 3 day): 5.9 g/dL
gamma-GTP (72 h, time 3 day): 1.8 IU/L
TERMINAL_BW ([…], time 7 day): 266.4 g
TERMINAL_BW ([…], time 14 day): 304.7 g
TERMINAL_BW ([…], time 28 day): 371.1 g
APTT ([…], time 7 day): 17.2 s
Bas ([…], time 7 day): 0%
Eos ([…], time 7 day): 1%
Fbg ([…], time 7 day): 287 mg/dL
Hb ([…], time 7 day): 13.6 g/dL
Ht ([…], time 7 day): 39%
Lym ([…], time 7 day): 78%
MCH ([…], time 7 day): 20.5 pg
MCHC ([…], time 7 day): 34.9%
MCV ([…], time 7 day): 58.6 fL
Mono ([…], time 7 day): 2.2%
Neu ([…], time 7 day): 18.6%
PT ([…], time 7 day): 11.9 s
Plat ([…], time 7 day): 141.2 x10_4/uL
RBC ([…], time 7 day): 665.8 x10_4/ul
Ret ([…], time 7 day): 4.7%
WBC ([…], time 7 day): 126.3 x10_2/uL
APTT ([…], time 14 day): 16.6 s
Bas ([…], time 14 day): 0.4%
Eos ([…], time 14 day): 0.8%
Fbg ([…], time 14 day): 281.6 mg/dL
Hb ([…], time 14 day): 14.4 g/dL
Ht ([…], time 14 day): 40.7%
Lym ([…], time 14 day): 82.8%
MCH ([…], time 14 day): 20.3 pg
MCHC ([…], time 14 day): 35.4%
MCV ([…], time 14 day): 57.2 fL
Mono ([…], time 14 day): 1.6%
Neu ([…], time 14 day): 14.2%
PT ([…], time 14 day): 12.5 s
Plat ([…], time 14 day): 122.8 x10_4/uL
RBC ([…], time 14 day): 711.2 x10_4/ul
Ret ([…], time 14 day): 4.1%
WBC ([…], time 14 day): 116.3 x10_2/uL
APTT ([…], time 28 day): 19.3 s
Bas ([…], time 28 day): 1%
Eos ([…], time 28 day): 1%
Fbg ([…], time 28 day): 322.5 mg/dL
Hb ([…], time 28 day): 15.1 g/dL
Ht ([…], time 28 day): 42.9%
Lym ([…], time 28 day): 80.8%
MCH ([…], time 28 day): 18.9 pg
MCHC ([…], time 28 day): 35.2%
MCV ([…], time 28 day): 53.8 fL
Mono ([…], time 28 day): 2.2%
Neu ([…], time 28 day): 14.5%
PT ([…], time 28 day): 12.9 s
Plat ([…], time 28 day): 127.8 x10_4/uL
RBC ([…], time 28 day): 798.8 x10_4/ul
Ret ([…], time 28 day): 2.8%
WBC ([…], time 28 day): 135.7 x10_2/uL
KIDNEY_L ([…], time 7 day): 1.2 g
KIDNEY_R ([…], time 7 day): 1.1 g
KIDNEY_TOTAL ([…], time 7 day): 2.3 g
KIDNEY_L ([…], time 14 day): 1.2 g
KIDNEY_R ([…], time 14 day): 1.2 g
KIDNEY_TOTAL ([…], time 14 day): 2.5 g
KIDNEY_L ([…], time 28 day): 1.4 g
KIDNEY_R ([…], time 28 day): 1.3 g
KIDNEY_TOTAL ([…], time 28 day): 2.7 g
LIVER ([…], time 7 day): 12.5 g
LIVER ([…], time 14 day): 12.9 g
LIVER ([…], time 28 day): 14.4 g
A/G ([…], time 7 day): 0.8
ALP ([…], time 7 day): 1417.8 IU/L
ALT ([…], time 7 day): 29.8 IU/L
AST ([…], time 7 day): 57.2 IU/L
BUN ([…], time 7 day): 22.4 mg/dL
CRE ([…], time 7 day): 0.2 mg/dL
Ca ([…], time 7 day): 11.2 mg/dL
Cl ([…], time 7 day): 105.2 meq/L
DBIL ([…], time 7 day): 0.018 mg/dL
GLC ([…], time 7 day): 177.8 mg/dL
IP ([…], time 7 day): 6.7 mg/dL
K ([…], time 7 day): 4.4 meq/L
LDH ([…], time 7 day): 57.4 IU/L
Na ([…], time 7 day): 143.2 meq/L
PL ([…], time 7 day): 145.6 mg/dL
RALB ([…], time 7 day): 2.6 g/dL
TBIL ([…], time 7 day): 0.044 mg/dL
TC ([…], time 7 day): 77 mg/dL
TG ([…], time 7 day): 138.6 mg/dL
TP ([…], time 7 day): 6 g/dL
gamma-GTP ([…], time 7 day): 1.2 IU/L
A/G ([…], time 14 day): 0.8
ALP ([…], time 14 day): 1437.6 IU/L
ALT ([…], time 14 day): 31.6 IU/L
AST ([…], time 14 day): 63 IU/L
BUN ([…], time 14 day): 27.2 mg/dL
CRE ([…], time 14 day): 0.2 mg/dL
Ca ([…], time 14 day): 10.8 mg/dL
Cl ([…], time 14 day): 105 meq/L
DBIL ([…], time 14 day): 0.016 mg/dL
GLC ([…], time 14 day): 183.2 mg/dL
IP ([…], time 14 day): 6.7 mg/dL
K ([…], time 14 day): 4.6 meq/L
LDH ([…], time 14 day): 54 IU/L
Na ([…], time 14 day): 142.8 meq/L
PL ([…], time 14 day): 149.8 mg/dL
RALB ([…], time 14 day): 2.6 g/dL
TBIL ([…], time 14 day): 0.048 mg/dL
TC ([…], time 14 day): 75.6 mg/dL
TG ([…], time 14 day): 132.8 mg/dL
TP ([…], time 14 day): 6 g/dL
gamma-GTP ([…], time 14 day): 1 IU/L
A/G ([…], time 28 day): 0.6
ALP ([…], time 28 day): 1068.2 IU/L
ALT ([…], time 28 day): 30.2 IU/L
AST ([…], time 28 day): 60.2 IU/L
BUN ([…], time 28 day): 26.8 mg/dL
CRE ([…], time 28 day): 0.2 mg/dL
Ca ([…], time 28 day): 10.9 mg/dL
Cl ([…], time 28 day): 106 meq/L
DBIL ([…], time 28 day): 0.0175 mg/dL
GLC ([…], time 28 day): 178 mg/dL
IP ([…], time 28 day): 6.1 mg/dL
K ([…], time 28 day): 4 meq/L
LDH ([…], time 28 day): 52.8 IU/L
Na ([…], time 28 day): 145.2 meq/L
PL ([…], time 28 day): 128.8 mg/dL
RALB ([…], time 28 day): 2.6 g/dL
TBIL ([…], time 28 day): 0.06 mg/dL
TC ([…], time 28 day): 63.2 mg/dL
TG ([…], time 28 day): 105 mg/dL
TP ([…], time 28 day): 6.4 g/dL
gamma-GTP ([…], time 28 day): 1.2 IU/L

— ChEMBL document CHEMBL3885861, “Open TG-GATES”
